The values that follow come from patent US20230265151A1, “GIP/GLP1 CO-AGONIST COMPOUNDS” (priority 2020, published 2023).

Common to all, as to assay type: cell-based
In one assay the target is hGLP-1R (Homo sapiens, UniProt P43220). Briefly: Functional cAMP formation (HTRF) in HEK-293 clonal cells expressing hGLP-1R, 0.1% bovine casein, without or with 1.0% human serum albumin. On the set-up: expressed in transfected cells. The note with it: for Emax: read-out: hGLP-1R Emax, % ± SEM; for EC50: geometric mean, read-out: hGLP-1R EC50, nM (SEM, n). Summed up:
(§1)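 Readings of the HTRF 665/620 nm ratio, which falls as cAMP rises, were converted to nM cAMP using a standard curve after 30 min peptide exposure at 37° C.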
In general terms: cAMP levels reflect the balance of adenylyl cyclase and phosphodiesterase activity.

In the next assay the target is T1, hGIPR (Homo sapiens, UniProt P48546).
T1 construct: expressed in transfected cells
T1 sequence (P48546 22-466): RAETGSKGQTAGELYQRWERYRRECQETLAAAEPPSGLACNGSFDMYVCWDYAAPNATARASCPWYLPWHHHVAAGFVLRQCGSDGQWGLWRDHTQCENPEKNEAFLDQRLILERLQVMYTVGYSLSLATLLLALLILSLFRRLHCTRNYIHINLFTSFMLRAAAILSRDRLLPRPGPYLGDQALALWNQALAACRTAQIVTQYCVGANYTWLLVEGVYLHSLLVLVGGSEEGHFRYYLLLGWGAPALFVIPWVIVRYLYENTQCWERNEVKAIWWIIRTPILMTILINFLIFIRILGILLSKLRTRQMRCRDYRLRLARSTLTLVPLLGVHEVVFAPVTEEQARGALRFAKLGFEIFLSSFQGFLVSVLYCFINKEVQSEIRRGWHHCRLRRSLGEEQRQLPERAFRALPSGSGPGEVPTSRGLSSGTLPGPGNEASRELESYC
The assay is described as follows: Functional cAMP formation (HTRF) in HEK-293 clonal cells expressing hGIPR, 0.1% bovine casein, without or with 1.0% human serum albumin. The note with it: for Emax: read-out: hGIPR Emax, % ± SEM; for EC50: cAMP, 0.1% bovine casein (no human serum albumin), geometric mean, read-out: hGIPR EC50, nM (SEM, n). The essentials:
as §1

In a further assay the target is T2, hGCGR (Homo sapiens, UniProt P47871).
T2 construct: expressed in transfected cells
Briefly: Functional cAMP formation (HTRF) in HEK-293 clonal cells expressing hGCGR, 0.1% bovine casein, without or with 1.0% human serum albumin. The conditions noted are these: read-out: hGCGR EC50, nM (SEM, n). Summed up:
as §1

Where [1] appears, read: HEK293, cAMP, 37° C., 0.1% bovine casein and 1.0% human serum albumin, percent of maximal response to GLP-1(7-36)NH2.
Where [2] appears, read: cAMP, 37° C., 0.1% bovine casein (no human serum albumin).
[3] abbreviates: HEK293, cAMP, 37° C., 0.1% bovine casein and 1.0% human serum albumin, percent of maximal response to GIP(1-42)NH2.
Where [4] appears, read: HEK293, cAMP, 37° C., 0.1% bovine casein, percent of maximal response to GIP(1-42)NH2, arithmetic mean.
The mark [5] stands for this setting: cAMP, 37° C., 0.1% bovine casein (no human serum albumin), geometric mean.
[6] abbreviates: cAMP, 37° C., 0.1% bovine casein and 1.0% human serum albumin, geometric mean (SEM, n).
Setting [7] is: HEK293, percent of maximal response to GLP-1(7-36)NH2, 37° C., 0.1% bovine casein, arithmetic mean.
The mark [8] stands for this setting: cAMP, incubated at 37° C., 0.1% bovine casein (no human serum albumin), geometric mean.

The structures appear in SMILES notation. Like-named read-outs stand apart in the source and are kept apart here. *1 amine or outer side, *2 acyl side, *3 side chain or, on linkers, in order; H or OH if unused. Where a SMILES comes first, the peptide text is derived from it. Side-chain parts run from the residue outwards. [ ]: non-standard residue; d: D form. The star is where a group is joined. αMePhe(2-F) = C[C@](N)(Cc1ccccc1F)C(=O)O; γGlu = O=C(O)[C@H](CCC(=O)[*:2])N[*:1]; C14 diacid = O=C(O)CCCCCCCCCCCCC(=O)*; αMeY = C[C@](N)(Cc1ccc(O)cc1)C(=O)O; αMeF = C[C@](N)(Cc1ccccc1)C(=O)O; 4Pal = N[C@@H](Cc1ccncc1)C(=O)O; αMeL = CC(C)C[C@](C)(N)C(=O)O; Orn = NCCC[C@H](N)C(=O)O; AEEA = NCCOCCOCC(=O)O; Aib = CC(C)(N)C(=O)O

hGLP-1R, sequence (P43220 24-463): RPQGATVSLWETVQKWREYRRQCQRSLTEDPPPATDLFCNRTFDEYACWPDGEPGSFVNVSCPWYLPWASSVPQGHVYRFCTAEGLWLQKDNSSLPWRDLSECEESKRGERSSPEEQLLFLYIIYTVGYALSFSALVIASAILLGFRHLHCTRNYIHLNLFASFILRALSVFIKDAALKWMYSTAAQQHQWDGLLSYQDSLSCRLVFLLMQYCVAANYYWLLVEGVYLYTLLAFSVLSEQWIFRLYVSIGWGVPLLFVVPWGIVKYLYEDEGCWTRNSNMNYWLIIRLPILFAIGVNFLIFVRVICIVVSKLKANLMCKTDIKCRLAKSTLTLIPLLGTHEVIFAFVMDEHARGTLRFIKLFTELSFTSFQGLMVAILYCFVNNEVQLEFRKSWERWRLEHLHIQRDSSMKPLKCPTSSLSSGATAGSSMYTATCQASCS
T2 sequence (P47871 26-477): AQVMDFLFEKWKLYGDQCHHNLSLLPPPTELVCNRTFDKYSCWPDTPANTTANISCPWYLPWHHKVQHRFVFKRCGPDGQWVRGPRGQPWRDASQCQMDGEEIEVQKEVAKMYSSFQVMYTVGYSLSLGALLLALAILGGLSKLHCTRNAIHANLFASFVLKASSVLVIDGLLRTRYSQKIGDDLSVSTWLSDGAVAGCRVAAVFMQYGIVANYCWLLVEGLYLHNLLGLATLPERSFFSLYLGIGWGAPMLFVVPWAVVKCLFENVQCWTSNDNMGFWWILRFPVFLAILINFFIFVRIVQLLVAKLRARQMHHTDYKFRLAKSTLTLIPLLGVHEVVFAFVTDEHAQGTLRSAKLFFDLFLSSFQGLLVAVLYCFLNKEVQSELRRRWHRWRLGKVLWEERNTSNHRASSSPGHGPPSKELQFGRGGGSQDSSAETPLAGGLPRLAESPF

For the molecule `CC[C@H](C)[C@H](NC(=O)[C@H](CCCN)NC(=O)[C@H](CC(=O)O)NC(=O)[C@H](CC(C)C)NC(=O)[C@](C)(CC(C)C)NC(=O)[C@@H](NC(=O)C(C)(C)NC(=O)[C@H](Cc1ccncc1)NC(=O)[C@H](CC(=O)O)NC(=O)[C@H](CO)NC(=O)[C@@H](NC(=O)[C@](C)(Cc1ccccc1F)NC(=O)[C@@H](NC(=O)CNC(=O)[C@H](CCC(=O)O)NC(=O)C(C)(C)NC(=O)[C@@H](N)Cc1ccc(O)cc1)[C@@H](C)O)[C@@H](C)O)[C@@H](C)CC)C(=O)N[C@@H](C)C(=O)N[C@@H](CCC(N)=O)C(=O)NC(C)(C)C(=O)N[C@@H](CCCCNC(=O)COCCOCCNC(=O)CC[C@H](NC(=O)CCCCCCCCCCCCC(=O)O)C(=O)O)C(=O)N[C@@H](Cc1ccccc1)C(=O)N[C@H](C(=O)N[C@H](CCC(=O)O)C(=O)N[C@@](C)(Cc1ccc(O)cc1)C(=O)N[C@@H](CC(C)C)C(=O)N[C@H](C(=O)N[C@@H](CCC(=O)O)C(=O)NCC(=O)NCC(=O)N1CCC[C@H]1C(=O)N[C@@H](CO)C(=O)N[C@@H](CO)C(=O)NCC(=O)N[C@@H](C)C(=O)N1CCC[C@H]1C(=O)N1CCC[C@H]1C(=O)N1CCC[C@H]1C(=O)N[C@@H](CO)C(=O)N[C@@H](CCCCNC(=O)COCCOCCNC(=O)CC[C@H](NC(=O)CCCCCCCCCCCCC(=O)O)C(=O)O)C(N)=O)[C@@H](C)CC)[C@@H](C)CC` [Example 341] (H-Y[Aib]EGT[αMePhe(2-F)]TSD[4Pal][Aib]I[αMeL]LD[Orn]IAQ[Aib]K([AEEA-γGlu-C14 diacid])FI[dE][αMeY]LIEGGPSSGAPPPSK([AEEA-γGlu-C14 diacid])-NH2), the Emax (commonly the greatest response seen or fitted, relative to the assay's reference) on hGLP-1R (setting [1]) was 113%; on hGIPR (setting [3]), 83.6%; at hGIPR (setting [4]), 91.4%. Besides, the EC50 (commonly the concentration that produces a half-maximal response) on hGLP-1R (setting [2]) is 0.329 nM; at hGIPR (37° C.) it was 0.0127 nM; at hGCGR (setting [5]), over 9950 nM; on hGCGR (setting [6]), over 9950 nM.

On to `CC[C@H](C)[C@H](NC(=O)[C@H](CCCN)NC(=O)[C@H](CC(=O)O)NC(=O)[C@H](CC(C)C)NC(=O)[C@](C)(CC(C)C)NC(=O)[C@@H](NC(=O)C(C)(C)NC(=O)[C@H](Cc1ccc(O)cc1)NC(=O)[C@H](CC(=O)O)NC(=O)[C@H](CO)NC(=O)[C@@H](NC(=O)[C@](C)(Cc1ccccc1F)NC(=O)[C@@H](NC(=O)CNC(=O)[C@H](CCC(=O)O)NC(=O)C(C)(C)NC(=O)[C@@H](N)Cc1ccc(O)cc1)[C@@H](C)O)[C@@H](C)O)[C@@H](C)CC)C(=O)N[C@@H](C)C(=O)N[C@@H](CCC(N)=O)C(=O)NC(C)(C)C(=O)N[C@@H](CCC(=O)O)C(=O)N[C@@H](Cc1ccccc1)C(=O)N[C@H](C(=O)N[C@@H](CCCCNC(=O)COCCOCCNC(=O)CC[C@H](NC(=O)COCCOCCNC(=O)CCCCCCCCCCCCC(=O)O)C(=O)O)C(=O)N[C@@](C)(Cc1ccc(O)cc1)C(=O)N[C@@H](CC(C)C)C(=O)N[C@H](C(=O)N[C@@H](CCCCNC(=O)COCCOCCNC(=O)CC[C@H](NC(=O)COCCOCCNC(=O)CCCCCCCCCCCCC(=O)O)C(=O)O)C(=O)NCC(=O)NCC(=O)N1CCC[C@H]1C(=O)N[C@@H](CO)C(=O)N[C@@H](CO)C(=O)NCC(=O)N[C@@H](C)C(=O)N1CCC[C@H]1C(=O)N1CCC[C@H]1C(=O)N1CCC[C@H]1C(=O)N[C@@H](CO)C(N)=O)[C@@H](C)CC)[C@@H](C)CC` [Example 365], for which the maximal response (Emax) on hGLP-1R (setting [1]) worked out at 91%; at hGLP-1R (HEK293, cAMP, 37° C., 0.1% bovine casein, percent of maximal response to GLP-1(7-36)NH2, arithmetic mean), 98.5%; on hGIPR (setting [3]), 93.5%; on hGIPR (setting [4]) it was 105%. Also, the EC50 at hGLP-1R (setting [2]) is 0.362 nM; at hGIPR (37° C.) it was 0.00809 nM; at hGCGR (setting [5]), over 9950 nM; on hGCGR (setting [6]) it was over 9950 nM.

Regarding `CC[C@H](C)[C@H](NC(=O)[C@H](CCCN)NC(=O)[C@H](CC(=O)O)NC(=O)[C@H](CC(C)C)NC(=O)[C@](C)(CC(C)C)NC(=O)[C@@H](NC(=O)[C@H](CO)NC(=O)[C@H](Cc1ccncc1)NC(=O)[C@H](CC(=O)O)NC(=O)[C@H](CO)NC(=O)[C@@H](NC(=O)[C@](C)(Cc1ccccc1F)NC(=O)[C@@H](NC(=O)CNC(=O)[C@H](CCC(=O)O)NC(=O)C(C)(C)NC(=O)[C@@H](N)Cc1ccc(O)cc1)[C@@H](C)O)[C@@H](C)O)[C@@H](C)CC)C(=O)N[C@@H](C)C(=O)N[C@@H](CCC(N)=O)C(=O)NC(C)(C)C(=O)N[C@@H](CCC(=O)O)C(=O)N[C@@H](Cc1ccccc1)C(=O)N[C@H](C(=O)N[C@@H](CCCCNC(=O)COCCOCCNC(=O)COCCOCCNC(=O)CC[C@H](NC(=O)CCCc1ccc(C(C)(C)C)cc1)C(=O)O)C(=O)N[C@@](C)(Cc1ccc(O)cc1)C(=O)N[C@@H](CC(C)C)C(=O)N[C@H](C(=O)N[C@@H](CCCCNC(=O)COCCOCCNC(=O)COCCOCCNC(=O)CC[C@H](NC(=O)CCCc1ccc(C(C)(C)C)cc1)C(=O)O)C(=O)NCC(=O)NCC(=O)N1CCC[C@H]1C(=O)N[C@@H](CO)C(=O)N[C@@H](CO)C(=O)NCC(=O)N[C@@H](C)C(=O)N1CCC[C@H]1C(=O)N1CCC[C@H]1C(=O)N1CCC[C@H]1C(=O)N[C@@H](CO)C(N)=O)[C@@H](C)CC)[C@@H](C)CC` [Example 203], the EC50 was 3.38 nM at hGLP-1R (0.1% bovine casein and 1.0% human serum albumin, 37° C.); 0.535 nM on hGLP-1R (cAMP, incubated at 37° C., 0.1% bovine casein (no human serum albumin)); over 9950 nM at hGCGR (0.1% bovine casein and 1.0% human serum albumin, 37° C., geometric mean); over 9950 nM on hGCGR (setting [8]). In addition, the Emax on hGLP-1R (HEK293, 0.1% bovine casein and 1.0% human serum albumin, 37° C., percent of maximal response to GLP-1(7-36)NH2) was determined as 105%; on hGLP-1R (setting [7]) it was 119%; on hGIPR (HEK293, 0.1% bovine casein and 1.0% human serum albumin, 37° C., percent of maximal response to GIP(1-42)NH2), 87.2%.

As to `CC[C@H](C)[C@H](NC(=O)[C@H](CCCN)NC(=O)[C@H](CC(=O)O)NC(=O)[C@H](CC(C)C)NC(=O)[C@](C)(CC(C)C)NC(=O)[C@@H](NC(=O)[C@H](CO)NC(=O)[C@H](CCCCNC(=O)COCCOCCNC(=O)COCCOCCNC(=O)CC[C@H](NC(=O)CCCCCCCCCCCCC(=O)O)C(=O)O)NC(=O)[C@H](CC(=O)O)NC(=O)[C@H](CO)NC(=O)[C@@H](NC(=O)[C@](C)(Cc1ccccc1F)NC(=O)[C@@H](NC(=O)CNC(=O)[C@H](CCC(=O)O)NC(=O)C(C)(C)NC(=O)[C@@H](N)Cc1ccc(O)cc1)[C@@H](C)O)[C@@H](C)O)[C@@H](C)CC)C(=O)N[C@@H](C)C(=O)N[C@@H](CCC(N)=O)C(=O)NC(C)(C)C(=O)N[C@@H](CCC(=O)O)C(=O)N[C@@](C)(Cc1ccccc1)C(=O)N[C@H](C(=O)N[C@H](CCC(=O)O)C(=O)N[C@@](C)(Cc1ccc(O)cc1)C(=O)N[C@@H](CC(C)C)C(=O)N[C@H](C(=O)N[C@@H](CCCCNC(=O)COCCOCCNC(=O)COCCOCCNC(=O)CC[C@H](NC(=O)CCCCCCCCCCCCC(=O)O)C(=O)O)C(=O)NCC(=O)NCC(=O)N1CCC[C@H]1C(=O)N[C@@H](CO)C(=O)N[C@@H](CO)C(=O)NCC(=O)N[C@@H](C)C(=O)N1CCC[C@H]1C(=O)N1CCC[C@H]1C(=O)N1CCC[C@H]1C(=O)N[C@@H](CO)C(N)=O)[C@@H](C)CC)[C@@H](C)CC` [Example 111] (H-Y[Aib]EGT[αMePhe(2-F)]TSDK([AEEA-AEEA-γGlu-C14 diacid])SI[αMeL]LD[Orn]IAQ[Aib]E[αMeF]I[dE][αMeY]LIK([AEEA-AEEA-γGlu-C14 diacid])GGPSSGAPPPS-NH2; N-terminus assumed), the Emax came to 121% at hGLP-1R (setting [7]) and 76.1% at hGIPR (HEK293, percent of maximal response to GIP(1-42)NH2, 37° C., 0.1% bovine casein, arithmetic mean). Further, the EC50 at hGIPR (incubated at 37° C.) was 0.0202 nM; on hGCGR (setting [8]) it was over 9950 nM.
